Measured values taken from the supplement of paper PMC10307832.

Legend:
Experiment in all cases: relative viability (nuclei count vs DMSO), 5 days (fraction); higher = more cells survive
Motesanib + Bortezomib = compound: CC1(C)CNc2cc(NC(=O)c3cccnc3NCc3ccncc3)ccc21 [Motesanib] + CC(C)C[C@H](NC(=O)[C@H](Cc1ccccc1)NC(=O)c1cnccn1)B(O)O [Bortezomib] (partner 0.002 µM)
Method in brief: (§1)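 The day after seeding in 1536-well plates, lung cancer cell lines were treated by pin tool with a single drug, or with a fixed anchor-drug dose together with five library-drug doses (not always all listed) in √10 steps. After 5 days, a combined fix-and-stain solution (final 0.05% Triton X-100, 1% formaldehyde, 1 ug/ml Hoechst) was added. Nuclei counted on 4× images gave relative viability as treated counts over vehicle counts, reported as the median of duplicate plates.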

Motesanib + Luminespib = compound: CC1(C)CNc2cc(NC(=O)c3cccnc3NCc3ccncc3)ccc21 [Motesanib] + CCNC(=O)c1noc(-c2cc(C(C)C)c(O)cc2O)c1-c1ccc(CN2CCOCC2)cc1 [Luminespib] (partner 0.01 µM)
Method in brief: as §1

Motesanib + Crizotinib = compound: CC1(C)CNc2cc(NC(=O)c3cccnc3NCc3ccncc3)ccc21 [Motesanib] + C[C@@H](Oc1cc(-c2cnn(C3CCNCC3)c2)cnc1N)c1c(Cl)ccc(F)c1Cl [Crizotinib] (partner 1 µM)
Method in brief: as §1

Motesanib + Vorinostat = compound: CC1(C)CNc2cc(NC(=O)c3cccnc3NCc3ccncc3)ccc21 [Motesanib] + O=C(CCCCCCC(=O)Nc1ccccc1)NO [Vorinostat] (partner 1 µM)
Method in brief: as §1

## UMC-11
Motesanib + Bortezomib; first compound 0.01 µM
  relative viability: 0.648
Motesanib + Bortezomib; first compound 0.03162 µM
  relative viability: 0.767
Motesanib + Bortezomib; first compound 0.1 µM
  relative viability: 0.64
Motesanib + Bortezomib; first compound 0.3162 µM
  relative viability: 0.683
Motesanib + Bortezomib; first compound 1 µM
  relative viability: 0.951
Motesanib + Luminespib; first compound 0.01 µM
  relative viability: 0.987
Motesanib + Luminespib; first compound 0.03162 µM
  relative viability: 1.07
Motesanib + Luminespib; first compound 0.1 µM
  relative viability: 0.927
Motesanib + Luminespib; first compound 0.3162 µM
  relative viability: 1.12
Motesanib + Luminespib; first compound 1 µM
  relative viability: 1.17
Motesanib + Crizotinib; first compound 0.01 µM
  relative viability: 0.526
Motesanib + Crizotinib; first compound 0.03162 µM
  relative viability: 0.657
Motesanib + Crizotinib; first compound 0.1 µM
  relative viability: 0.631
Motesanib + Crizotinib; first compound 0.3162 µM
  relative viability: 0.595
Motesanib + Crizotinib; first compound 1 µM
  relative viability: 0.742
Motesanib + Vorinostat; first compound 0.01 µM
  relative viability: 0.44
Motesanib + Vorinostat; first compound 0.03162 µM
  relative viability: 0.438
Motesanib + Vorinostat; first compound 0.1 µM
  relative viability: 0.345
Motesanib + Vorinostat; first compound 0.3162 µM
  relative viability: 0.426
Motesanib + Vorinostat; first compound 1 µM
  relative viability: 0.476
